Results: patent US20100098662A1, “TREATMENT OF LIVER DISEASES IN WHICH IRON PLAYS A ROLE IN PATHOGENESIS” (priority 2005, published 2010)

Key:
[1] = Clinical dose-escalation trial of Compound I: pharmacokinetics; type: in vivo, human
Description: (§1) A randomized, double-blind, placebo-controlled, dose-escalation trial of Compound I in 24 adult β-thalassemia patients in which the safety, tolerability, PK and cumulative iron balance of 12 days of Compound I are assessed (10 mg/kg (n=5), 20 mg/kg (n=6), 40 mg/kg (n=7), and placebo (n=6).

[2] = system: Long-Evans cinnamon (LEC) rat; assay: Spontaneous acute hepatitis in LEC rat model; type: in vivo; conditions: male LEC rats, oral 14 and 28 mg/kg/day
Description: Long-Evans cinnamon (LEC) rat is a mutant strain displaying hereditary hepatitis and spontaneous liver cancer. Compound I has been tested for efficacy on acute hepatitis in LEC rat model.
Methods: Compound I was administered orally to male LEC rats by gavage on does of 0, 14 and 28 mg/kg/day, starting at 6-week-old and continuing till 18-week-old. Each four rats were sacrificed on 9, 12, 14, 16 and 18-week-old in Compound I—treated groups and control group.
On sacrificing, peripheral blood was collected for monitoring the biochemical markers, including the serum alanine transaminase (ALT). Liver tissue were histologically examined.

[3] = system: adult β-thalassemia patients; assay: Clinical dose-escalation trial of Compound I: iron balance and efficiency of chelation; type: in vivo, human
Description: as §1
Efficiency of chelation is based on average daily net iron excretion, and is calculated as the ratio between […], relative to body weight. The theoretical amount of iron is obtained from the consideration that two molecules of Compound I are needed to chelate a single atom of iron. The molecular weight of Compound I being 373.4, and that of iron 55.85. The efficiency is therefore calculated as:
Efficiency=(Feexcr*2*373.4)/(DoseCompound×55.85)×100%) • DoseCompound and Feexcr are given in mg/kg body weight.

[4] = system: rare anemia patients (iron-overloaded); assay: ALT values of rare anemia patients after one year of treatment; type: in vivo, human
Description: (§2) Patients were iron-overloaded patients and were treated with different doses of Compound I for one year.
(§3) ALT was measured according to standard biomedical techniques, e.g. using the International Federation of Clinical Chemistry reference method as described in Brinkmann T, Dreier J, Diekmann J, Gotting C, Klauke R, Schumann G, Kleesiek K. Alanine aminotransferase cut-off values for blood donor screening using the new International Federation of Clinical Chemistry reference method at 37 degrees C. Vox Sang. 2003 85(3): 159-64.
(§4) The baseline ALT value is defined as the patient ALT value determined for the patient at the stage of enrollment in the clinical trial, i.e. the ALT baseline value is the ALT value of the patient before starting Compound I treatment.

[5] = system: thalassemia patients (iron-overloaded); assay: ALT values of thalassemia patients after one year of treatment; type: in vivo, human
Description: as §2, §3, §4

O=C(O)c1ccc(-n2nc(-c3ccccc3O)nc2-c2ccccc2O)cc1 [Compound I, 4-[3,5-Bis-(2-hydroxyphenyl)-[1,2,4]-triazol-1-yl]benzoic acid]
Exposure (Cmax and AUC) increase with dose ([1]; after single dose administration): slightly over-proportionally
Exposure (Cmax and AUC) increase with dose ([1]; during steady state): approximately proportional
half-life ([1]; human, blood, at steady state, read-out: mean elimination half-life t1/2): 720 to 780 min
absorption ([1]; β-thalassemia patients, 10, 20, 40 mg/kg, 12 days): rapidly absorbed
Hepatic iron accumulation assessed by Prussian blue staining vs control group [2]: markedly reduced
serum ALT level vs control group ([2]; at 18-week-old): significantly lower
Negative iron balance (average daily net iron excretion) ([3]; 10 mg/kg dose): approximately 0.127 mg/kg/day
efficiency of chelation ([3]; 10 mg/kg dose group): 16%
efficiency of chelation ([3]; 20 mg/kg): 22%
Negative iron balance (average daily net iron excretion) ([3]; 20 mg/kg dose): ~0.343 mg/kg/day
efficiency of chelation ([3]; 40 mg/kg): 15%
Negative iron balance (average daily net iron excretion) ([3]; 40 mg/kg dose): ~0.564 mg/kg/day
iron excretion ([3]; iron balance studies, almost entirely in the feces): dose-dependent increase
Mean of ALT ([4]; 5 mg/kg/day): 67.42 Units/liter
Mean of ALT ([4]; 10 mg/kg/day): 14.22 Units/liter
Mean of ALT ([4]; 20 mg/kg/day): −3.27 Units/liter
Mean of ALT ([4]; 30 mg/kg/day): −14.19 Units/liter
Mean of ALT ([5]; 5 mg/kg/day): 35.25 Units/liter
Mean of ALT ([5]; 10 mg/kg/day): 26.62 Units/liter
Mean of ALT ([5]; 20 mg/kg/day): 3.17 Units/liter
Mean of ALT ([5]; 30 mg/kg/day): −23.56 Units/liter
